What all share (format): cell-based
One test has as its system HLTEX11. As to the kind of experiment: FLIPR calcium response in HEK-293 cells transiently expressing the 7TM receptor HLTEX11. To be noted: HEK-293 cells transiently expressing HLTEX11, + G-protein cocktail. From the text:
(§1) The assays utilized a G-protein cocktail (+GPC) that contained chimeric and promiscuous G-proteins, as is known in the art of screening orphan G-protein coupled receptors.

The test system of a further test is PGRW. Nature of the test: FLIPR calcium response in HEK-293 cells transiently expressing the 7TM receptor PGRW (GPRW). The settings on record: HEK-293 cells transiently expressing PGRW, + G-protein cocktail.
Text: as §1

Test [1] relates to CHO cells containing GAL4/Elk1-luciferase reporter constructs. Nature of the test: GAL4/Elk-1-luciferase reporter in host CHO cells (reporter only), with and without pertussis toxin. The settings on record: 4 hours after treatment. From the text:
(§2) To further test the coupling of GPR40 to Gαi/Gαq a Gal4/Elk-1 reporter was used. A stable, clonal reporter line was created by transfecting CHO cells with a plasmid that contains an expression construct for GAL4/Elk-1 and a GAL4-luciferase reporter construct. A similar reporter system can now be purchased from Stratagene (under the trademark […]®). An expression construct for human GPR40 which contains a G418 resistance construct was transfected into the host CHO GAL4/Elk-1 reporter cell line (10 ug plasmid DNA pCR3-GPR40) via electroporation. The cell lines were selected for with 500 ug/mL G418 until all cells in the control were dead and clones were then picked. The Gal4/Elk-1 reporter can be activated through Gq or Gi. To confirm coupling via Gi, cells were treated with pertussis toxin treatment which ADP-ribosylates Gαi preventing its interaction with receptors (Bokoch et al., J. Biol. Chem 258:2072 (1983)). Pertussis toxin has no known effect on Gαq.
(§3) Host cells and those transfected with the GPR40 construct were plated in a 96-well tissue culture plate at 2000 cells/well in DMEM/F12 supplemented with 5% FBS. After 48 hours at 37° C. at 5% CO2, the cells were placed in serum-free DMEM/F12 in the presence or absence of 1 ug/ml pertussis toxin. After 16 hours at 37° C., 5% CO2 the host cells were treated with: lysophosphatidic acid (oleoyl) (LPA) which couples through GαI to activate MAP kinase (Hordijk et al., J. Biol. Chem. 269: 645 (1994)); thrombin which couples through Gαi and Gαq (Hung et al., J. Biol. Chem. 267:20831 (1992)); or 5,8,11-Eicosatriynoic acid (a GPR40 ligand), at the concentrations indicated. The host cells containing the GPR40 construct were stimulated with or 5,8,11-Eicosatriynoic acid at the concentrations indicated. Controls for lysophosphatidic acid contained 0.5% DMSO; controls for […] contained 0.05% ethanol. Luciferase activity was assayed 4 hours after treatment using a luciferase reporter gene assay kit available under the trademark LUCLITE®, as per manufacturers instructions (Packard Bioscience).
In general terms: Reporter assays use an easily measured gene product as a stand-in for the process of interest.

The test system of test [2] is CHO cells expressing CRE-luciferase with no receptor. Nature of the test: CRE-luciferase reporter in CHO cells containing reporter only (no receptor). The settings on record: 4 hours of treatment. The protocol:
(§4) Specific coupling was determined in mammalian cells using transient expression of a CRE-luciferase reporter for Gαs and stable cell-lines containing Gal4/ELK-1-luciferase reporter for Gαq/Gαi. Wild-type CHO cells were co-transfected with 3×-CRE-luciferase reporter vector and various amounts of an expression vector for GPR40. The control cells were transfected with reporter vector only. The reporter gene plasmids were produced in house but similar vectors can be purchased from Stratagene ([…]®). Cells were plated in a 24 well tissue culture plate at 1×10^4 cells/well in DMEM/F12 supplemented with 5% FBS. After 72 hours at 37° C., 5% CO2, the cells were transfected using the liposomal transfection reagent sold under the trademark LIPOFECTAME® and with the following combinations of plasmids: • A-3×-CRE-Luc • B-3×-CRE-Luc+CMV-GPR40 • C-3×-CRE-Luc+CMV-Gs coupled receptor The concentration of reporter plasmid for all wells was 0.15 μg/well. Concentrations of receptor plasmids were 0.5, 1.0, 5.0, 10.0 ng/well. After 24 hrs Cells containing 1 ng/well of receptor plasmid or no DNA control and CRE-Luc reporter were treated with fatty acid or the calcitonin which is known to act through a Gs-coupled receptor (Chakraborty, Science 251: 1078 (1991)) at concentrations indicated. […]

Test [3] has as its target T1, human GPR40 (Homo sapiens, UniProt O14842). Nature of the test: FLIPR intracellular calcium response in HEK-293 cells transiently expressing GPR40. Also noted: expressed in transfected cells; host or cells: HEK-293 (transient). To be noted: FLIPR, GPR40 stimulation, Additional Fatty Acid Compounds.
Text: The Fluorometric Imaging Plate Reader (FLIPR™, Molecular Devices, UK) measures intracellular fluorescense in multi-well microplates. Where a GPCR couples to a calcium signalling pathway, the FLIPR system can be used with cells expressing the G-protein coupled receptor and containing calcium-sensitive fluorescent dyes, to monitor the intracellular calcium flux that occurs after activation of the G-coupled receptor. See, e.g., Kirk et al., J. Biomolecular Screening, 1:75 (1996).
as §1
(A change in cytosolic calcium serves as a functional read-out for many receptors and channels.)

Test [4] concerns the target T1, human GPR40. Nature of the test: CRE-luciferase reporter in CHO cells co-transfected with GPR40 expression vector. The settings on record: CHO cells containing GPR40 and CRE-Luc reporter, 4 hours of treatment. Also noted: expressed in transfected cells. Here is the method: as §4
Test [5] has as its target T1, human GPR40. As to the kind of experiment: GAL4/Elk-1-luciferase reporter in CHO clones transfected with human GPR40, with and without pertussis toxin. Also noted: expressed in transfected cells.
Text: as §2, §3

Read-outs that look alike come from different tables or passages of the source.

The EC50 is the concentration needed to bring the measured effect to its halfway point.

T1 sequence (O14842 whole entry): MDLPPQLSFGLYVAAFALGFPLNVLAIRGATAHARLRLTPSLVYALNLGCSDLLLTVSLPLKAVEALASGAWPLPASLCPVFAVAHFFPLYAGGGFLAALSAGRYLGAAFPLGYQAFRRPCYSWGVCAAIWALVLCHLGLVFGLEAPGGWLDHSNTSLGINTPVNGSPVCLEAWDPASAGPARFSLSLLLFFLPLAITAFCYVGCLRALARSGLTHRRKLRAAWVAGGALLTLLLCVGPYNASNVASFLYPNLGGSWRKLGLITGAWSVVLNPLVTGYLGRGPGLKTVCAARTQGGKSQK

Take `CCCCCCCC/C=C/CCCCCCCC(=O)O` [Elaidic acid]: the FLIPR calcium response entry with HLTEX11 and in the test on PGRW was “No response was detected” in each case.
`CCCCCCCCC#CCC#CCC#CCCCC(=O)O` [5,8,11-Eicosatriynoic acid]: the “luciferase production (GAL4/Elk-1 reporter)” value in test [1] was “no effect”. The “luciferase production (CRE-luciferase)” value (in test [2]; on human GPR40 [4]) was “no effect” in each case. Besides, the EC50 on human GPR40 [3] (read-out: EC50 uM) and on human GPR40 [3] (read-out: EC50) was 1.7 µM in each case. Further, on human GPR40 [5] (cells containing GPR40, 1 ug/ml pertussis toxin 16 hours), the “agonist-stimulated luciferase activity after pertussis toxin treatment” value was “not inhibited”. The “luciferase activity compared to basal (GAL4/Elk-1 reporter)” value on human GPR40 [5] (cells containing GPR40, 4 hours after treatment) is on record as “increased luciferase activity”.

The values above are taken from patent publication US7241579B2, “Method of screening for GPR40 ligands” (SmithKline Beecham Corporation, priority 2000, dated 2007).
